Assay results reported in patent publication US20230002359A1, “PESTICIDALLY ACTIVE FUSED BICYCLIC HETEROAROMATIC COMPOUNDS” (priority 2019, published 2023).

Legend:
Type in all cases: in vivo
[1] = test system: Diabrotica Balteata (Corn Root Worm); assay: Example B1: Diabrotica balteata (corn root worm), maize sprouts sprayed, L2 larvae; settings: 96 h, application rate of 200 ppm, 4 days after infestation, L2 larvae, read-out: control in at least one of the two categories (mortality or growth inhibition)
Outline: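 Larvae at L2 stage, 6 to 10 per well, feed on dried, spray-treated maize sprouts set on agar. Evaluation after 4 days compares mortality and growth inhibition with untreated samples.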

[2] = test system: Chilo suppressalis (Striped Rice Stemborer); assay: Example B3: Chilo suppressalis (striped rice stemborer), artificial diet, L2 larvae; settings: 144 h, application rate of 200 ppm, 6 days after infestation, L2 larvae, read-out: control in at least one of the three categories (mortality, anti-feedant effect, or growth inhibition)
Outline: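 Artificial diet in wells was treated with aqueous test solutions diluted from 10'000 ppm DMSO stocks, dried, then infested with 6-8 L2 larvae per well. Mortality, anti-feeding effect and growth inhibition were scored against untreated samples 6 days after infestation; control means any category exceeds the untreated sample.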

[3] = test system: Plutella xylostella (Diamond Back Moth); assay: Example B4: Plutella xylostella (diamond back moth), artificial diet, eggs, 24-well; settings: 192 h, application rate of 200 ppm, 8 days after infestation, eggs, read-out: control in at least one of the two categories (mortality or growth inhibition)
Procedure: 24-well microtiter plates with artificial diet were treated with aqueous test solutions prepared from 10′000 ppm DMSO stock solutions by pipetting. After drying, Plutella eggs were pipetted through a plastic stencil onto a gel blotting paper and the plate was closed with it. The samples were assessed for mortality and growth inhibition in comparison to untreated samples 8 days after infestation.

[4] = test system: Spodoptera littoralis (Egyptian Cotton Leaf Worm); assay: Example B7: Spodoptera littoralis (Egyptian cotton leaf worm), cotton leaf discs sprayed, L1 larvae; settings: foliar, 72 h, application rate of 200 ppm, 3 days after infestation, L1 larvae, read-out: control in at least one of the three categories (mortality, anti-feedant effect, or growth inhibition)
Outline: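 Cotton leaf discs on agar were sprayed with aqueous test solutions made from 10′000 ppm DMSO stocks, dried, then infested with five L1 larvae. Mortality, anti-feeding effect and growth inhibition were scored against untreated discs 3 days after infestation; control means any category exceeds untreated.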

C[C@H](Nc1ncnc2c(C(F)(F)F)cc(I)cc12)c1ncnn1-c1ccc(C#N)cn1 [P.218, 6-[5-[(1S)-1-[[6-iodo-8-(trifluoromethyl)quinazolin-4-yl]amino]ethyl]-1,2,4-triazol-1-yl]pyridine-3-carbonitirle]
≥ 80%: percent control (mortality or growth inhibition) at 200 ppm [1] | percent control (mortality, anti-feedant effect or growth inhibition) at 200 ppm [2] | percent control (mortality or growth inhibition) at 200 ppm [3] | percent control (mortality, anti-feedant effect or growth inhibition) at 200 ppm [4]

CC(Nc1ncnc2c(OC(F)(F)F)cc(Br)cc12)c1ncnn1-c1ccc(C#N)cn1 (stereo not shown) [P.247, 6-[5-[1-[[6-bromo-8-(trifluoromethoxy)quinazo-lin-4-yl]amino]ethyl]-1,2,4-triazol-1-yl]pyridine-3-carbonitrile]
≥ 80%: percent control (mortality or growth inhibition) at 200 ppm [1] | percent control (mortality, anti-feedant effect or growth inhibition) at 200 ppm [2] | percent control (mortality or growth inhibition) at 200 ppm [3] | percent control (mortality, anti-feedant effect or growth inhibition) at 200 ppm [4]

CC(Nc1ncnc2c(OC(F)F)cc(Br)cc12)c1nccnc1-n1nccn1 (stereo not shown) [P.31, 6-bromo-8-(difluoromethoxy)-N-[1-[3-(triazol-2-yl)pyrazin-2-yl]ethyl]quinazolin-4-amine]
≥ 80%: percent control (mortality or growth inhibition) at 200 ppm [1] | percent control (mortality, anti-feedant effect or growth inhibition) at 200 ppm [2] | percent control (mortality or growth inhibition) at 200 ppm [3] | percent control (mortality, anti-feedant effect or growth inhibition) at 200 ppm [4]

CC(Nc1ncnc2c(Cl)cc(C(F)(F)F)cc12)c1nccnc1-c1ncccn1 (stereo not shown) [P.101, 8-chloro-N-[1-(3-pyrimidin-2-ylpyrazin-2-yl)ethyl]-6-(trifluoromethyl)quinazolin-4-amine]
≥ 80%: percent control (mortality or growth inhibition) at 200 ppm [1] | percent control (mortality, anti-feedant effect or growth inhibition) at 200 ppm [2] | percent control (mortality or growth inhibition) at 200 ppm [3] | percent control (mortality, anti-feedant effect or growth inhibition) at 200 ppm [4]

C[C@@H](c1ncnn1-c1ccc(C#N)cn1)N(C)c1ncnc2c(Cl)cc(C(F)(F)F)cc12 [P.19, 6-[5-[(1S)-1-[[8-chloro-6-(trifluoromethyl)quinazolin-4-yl]-methyl-amino]ethyl]-1,2,4-triazol-1-yl]pyridine-3-carbonitrile]
≥ 80%: percent control (mortality or growth inhibition) at 200 ppm [1] | percent control (mortality, anti-feedant effect or growth inhibition) at 200 ppm [2] | percent control (mortality or growth inhibition) at 200 ppm [3] | percent control (mortality, anti-feedant effect or growth inhibition) at 200 ppm [4]

CC(c1nccnc1-n1nccn1)N(C)c1ncnc2c(C(F)(F)F)cc(Cl)cc12 (stereo not shown) [P.129, 6-chloro-N-methyl-N-[1-[3-(triazol-2-yl)pyrazin-2-yl]ethyl]-8-(trifluoromethyl)quinazolin-4-amine]
≥ 80%: percent control (mortality or growth inhibition) at 200 ppm [1] | percent control (mortality, anti-feedant effect or growth inhibition) at 200 ppm [2] | percent control (mortality or growth inhibition) at 200 ppm [3] | percent control (mortality, anti-feedant effect or growth inhibition) at 200 ppm [4]

C[C@H](Nc1ccnc2c(C(F)(F)F)cc(C(F)(F)F)cc12)c1ncnn1-c1ncccn1 [P.5, N-[(1S)-1-(2-pyrimidin-2-yl-1,2,4-triazol-3-yl)ethyl]-6,8-bis(trifluoromethyl)quinolin-4-amine]
≥ 80%: percent control (mortality or growth inhibition) at 200 ppm [1] | percent control (mortality, anti-feedant effect or growth inhibition) at 200 ppm [2] | percent control (mortality or growth inhibition) at 200 ppm [3] | percent control (mortality, anti-feedant effect or growth inhibition) at 200 ppm [4]

CC(Nc1ncnc2c(OC(F)(F)F)cc(Br)cc12)c1nccnc1-n1nccn1 (stereo not shown) [P.14, 6-bromo-N-[1-[3-(triazol-2-yl)pyrazin-2-yl]ethyl]-8-(trifluoromethoxy)quina-zolin-4-amine]
≥ 80%: percent control (mortality or growth inhibition) at 200 ppm [1] | percent control (mortality, anti-feedant effect or growth inhibition) at 200 ppm [2] | percent control (mortality or growth inhibition) at 200 ppm [3] | percent control (mortality, anti-feedant effect or growth inhibition) at 200 ppm [4]

CC(c1ncnn1-c1ccc(OC(F)F)cn1)N(C)c1ncnc2c(C(F)(F)F)cc(C(F)(F)F)cc12 (stereo not shown) [P.192]
≥ 80%: percent control (mortality or growth inhibition) at 200 ppm [1] | percent control (mortality, anti-feedant effect or growth inhibition) at 200 ppm [2] | percent control (mortality or growth inhibition) at 200 ppm [3] | percent control (mortality, anti-feedant effect or growth inhibition) at 200 ppm [4]

CC(c1nccnc1-c1ncccn1)N(C)c1ncnc2c(Br)cc(C(F)(F)F)cc12 (stereo not shown) [P.97, 8-bromo-N-methyl-N-[1-(3-pyrimidin-2-ylpyrazin-2-yl)ethyl]-6-(trifluoromethyl)quinazolin-4-amine]
≥ 80%: percent control (mortality or growth inhibition) at 200 ppm [1] | percent control (mortality, anti-feedant effect or growth inhibition) at 200 ppm [2] | percent control (mortality or growth inhibition) at 200 ppm [3] | percent control (mortality, anti-feedant effect or growth inhibition) at 200 ppm [4]

C[C@@H](c1ncnn1-c1ccc(C#N)cn1)N(C)c1ccnc2c(C(F)(F)F)cc(Br)cc12 [P.206, 6-[5-[(1S)-1-[[6-bromo-8-(trifluoromethyl)-4-quinolyl]-methyl-amino]ethyl]-1,2,4-triazol-1-yl]pyridine-3-carbonitrile]
≥ 80%: percent control (mortality or growth inhibition) at 200 ppm [1] | percent control (mortality, anti-feedant effect or growth inhibition) at 200 ppm [2] | percent control (mortality or growth inhibition) at 200 ppm [3] | percent control (mortality, anti-feedant effect or growth inhibition) at 200 ppm [4]

CC(c1ncnn1-c1ccc(Br)cn1)N(C)c1ncnc2c(C(F)(F)F)cc(Cl)cc12 (stereo not shown) [P.238, N-[1-[2-(5-bromo-2-pyridyl)-1,2,4-triazol-3-yl]ethyl]-6-chloro-N-methyl-8-(trifluoromethyl)quinazolin-4-amine]
≥ 80%: percent control (mortality or growth inhibition) at 200 ppm [1] | percent control (mortality, anti-feedant effect or growth inhibition) at 200 ppm [2] | percent control (mortality or growth inhibition) at 200 ppm [3] | percent control (mortality, anti-feedant effect or growth inhibition) at 200 ppm [4]

CC(Nc1ncnc2c(Br)cc(Br)cc12)c1ncnn1-c1ccc(C#N)cn1 (stereo not shown) [P.30, 6-[5-[1-[(6,8-dibromoquinazolin-4-yl)amino]ethyl]-1,2,4-triazol-1-yl]pyridine-3-carbonitrile]
≥ 80%: percent control (mortality or growth inhibition) at 200 ppm [1] | percent control (mortality, anti-feedant effect or growth inhibition) at 200 ppm [2] | percent control (mortality or growth inhibition) at 200 ppm [3] | percent control (mortality, anti-feedant effect or growth inhibition) at 200 ppm [4]

C[C@@H](c1ncnn1-c1ccc(C#N)cn1)N(C)c1ncnc2c(C(F)(F)F)cc(C(F)(F)C3CC3)cc12 [P.163, 6-[5-[(1S)-1-[[6-[cyclopropyl(difluoro)meth-yl]-8-(trifluoromethyl)quinazolin-4-yl]-methyl-amino]ethyl]-1,2,4-triazol-1-yl]pyridine-3-carbonitrile]
≥ 80%: percent control (mortality or growth inhibition) at 200 ppm [1] | percent control (mortality, anti-feedant effect or growth inhibition) at 200 ppm [2] | percent control (mortality or growth inhibition) at 200 ppm [3] | percent control (mortality, anti-feedant effect or growth inhibition) at 200 ppm [4]

CC(Nc1ncnc2c(Cl)cc(C(F)(F)F)cc12)c1nccnc1-c1ccc(OC(F)F)cn1 (stereo not shown) [P.113, 8-chloro-N-[1-[3-[5-(difluoromethoxy)-2-pyridyl]pyrazin-2-yl]ethyl]-6-(trifluoromethyl)quinazolin-4-amine]
≥ 80%: percent control (mortality or growth inhibition) at 200 ppm [1] | percent control (mortality, anti-feedant effect or growth inhibition) at 200 ppm [2] | percent control (mortality or growth inhibition) at 200 ppm [3] | percent control (mortality, anti-feedant effect or growth inhibition) at 200 ppm [4]

CC(c1nccnc1-c1ccc(OC(F)F)cn1)N(C)c1ncnc2c(Br)cc(C(F)(F)F)cc12 (stereo not shown) [P.114, 8-bromo-N-[1-[3-[5-(difluoromethoxy)-2-pyridyl]pyrazin-2-yl]ethyl]-N-methyl-6-(trifluoromethyl)quinazolin-4-amine]
≥ 80%: percent control (mortality or growth inhibition) at 200 ppm [1] | percent control (mortality, anti-feedant effect or growth inhibition) at 200 ppm [2] | percent control (mortality or growth inhibition) at 200 ppm [3] | percent control (mortality, anti-feedant effect or growth inhibition) at 200 ppm [4]
